Laboratory results: US20220132839A1, “MOSQUITO ATTRACTANT COMPOSITIONS” (UNIVERSITY OF WASHINGTON, priority 2019, published 2022)
Entries after “also recorded” stand apart in the source; their conditions may differ.

Experiments:
Aedes mosquitoes = experiment: GC-EAD antennal responses, Aedes mosquitoes from the field
Description: (§1) Electroantennogram signals were filtered and amplified (100×; 0.1-500 Hz) using an A-M 1800 amplifier (Sequim, Wash., USA) connected to a personal computer via a BNC-2090A analog-to-digital board (National Instruments, Austin, Tex., USA) and digitized at 20 Hz using WinEDR software (Strathclyde Electrophysiology Software, Glasgow, UK). A Hum Bug noise eliminator (Quest Scientific, Vancouver, Canada) was used to decrease electrical noise. The antennal responses to peaks eluting from the GC were measured for each mosquito preparation, and each peak and mosquito species. Bioactive peaks were those that elicited strong EAD responses, corresponding to deflections beyond the average noise floor of the baseline EAD signal. Responses by each individual preparation were used for Principal Component Analysis (Ade4 package, R). The responses of eight different mosquito species were tested to the scent extracts of three orchid species (n=8 mosquito species for P. obtusata; n=4 mosquito species each for P. stricta and P. huronensis; with 3-17 replicates per mosquito species per orchid, for a total of 109 GC-EAD experiments).
Individual mosquitoes were isolated in Falcon™ tubes (Thermo Fisher Scientific, Pittsburgh, Pa., USA) covered with a piece of fine mesh. They were maintained in a climatic chamber, as previously described, and identified immediately before running the experiment. Carbon dioxide delivered through a pad (Genesee Scientific, San Diego, Calif., USA) was used to briefly anesthetize mosquitoes before transferring them on ice for the dissection. The head was excised and the tip (i.e., one segment) of each antenna was cut off with fine scissors under a binocular microscope (Carl Zeiss, Oberkochen, Germany). The head was then mounted on an electrode composed of a silver wire 0.01″ (A-M Systems, Carlsbord, Wash., USA) and a borosilicate pulled capillary (Sutter Instrument Company, Novato, Calif., USA) filled with a 1:3 mix of saline (L. B. Thien, F. Utech, The mode of pollination in Habenaria obtusata (Orchidaceae). American Journal of Botany 57, 1031-1035 (1970) and electrode gel (Parker Laboratories, Fairfield, N.J., USA) in order to avoid the preparation to desiccate during the experiment. The head was mounted by the neck on the reference electrode. The preparation was then moved to the GC-EAD with the tips of the antennae inserted under the microscope (Optiphot-2, Nikon, Tokyo, Japan) into a recording electrode, that was identical to the reference electrode. The mounted antennae were oriented at 90° from the main airline which was carrying filtered air (Praxair, Danbury, Conn., USA) and volatiles eluting from the Gas-Chromatograph to the preparation via a 200° C. transfer line (EC-05; Syntech GmbH, Buchenbach, Germany). Five microliters of the orchid extract were injected into the Gas Chromatograph with Flame Ionization Detection (Agilent 7820A GC, Agilent Technologies; DB5 column, J&W Scientific, Folsom, Calif., USA). The oven program was the same as the one used for the GC-MS analyses of the scent extracts. The transfer line from the GC to the preparation was set to 200° C.

Culiseta mosquitoes = experiment: GC-EAD antennal responses, Culiseta mosquitoes; parameters: species or system Culiseta sp.; settings: peaks of the P. obtusata scent
Description: as §1
Individual mosquitoes were isolated in Falcon™ tubes (Thermo Fisher Scientific, Pittsburgh, Pa., USA) covered with a piece of fine mesh. They were maintained in a climatic chamber, as previously described, and identified immediately before running the experiment. […]

## CCCCCCCCC=O [nonanal]
Aedes mosquitoes; peaks of the P. obtusata scent
  antennal responses (GC-EAD): evoked antennal responses; also recorded: consistent responses and one of the strongest relative responses
Aedes mosquitoes; scents of P. stricta and P. huronensis, Ae. increpitus, Ae. communis, Ae. canadensis and Culiseta sp.
  antennal responses (GC-EAD): all responded
Culiseta mosquitoes
  antennal responses (GC-EAD): very little response
